Assay [1] relates to INS1. In words: protection of INS-1E cells from cytokine death, dose response, ATP luminescence, dry powder (AID 488844). Type of assay: functional, cell-based. The conditions noted are these: Rattus norvegicus.
Assay [2] relates to INS1. In words: protection from cytokine-induced mitochondrial depolarization, dose response, cell-based, INS-1E, JC-1 fluorescence ratio, dry powder (AID 488931). It counts as functional. The conditions noted are these: Rattus norvegicus.
Assay [3] concerns the target T1, Endoribonuclease toxin MazF (Escherichia coli K-12, UniProt P0AE70). In words: MazF toxin RNase activators, dose response, biochemical, fluorescence, single-stranded RNA substrate, uHTS hits (AID 588481). It counts as functional.
Assay [4] has as its target T1, Endoribonuclease toxin MazF. In words: fluorescent RNA oligo signal without MazF, dose response, counter-screen for MazEF activator project, biochemical, fluorescence, single-stranded RNase substrate (AID 588502). Type of assay: functional. In general terms: A counterscreen serves to expose hits that act by an unwanted route or on another target.
A further assay concerns the target Bcl-2-like protein 10 (Homo sapiens, UniProt Q9HD36). In words: Isothermal titration calorimetry (ITC) with Bcl-B and compounds active in primary screen. [Related pubchem assays (depositor defined):AID1693]. It counts as functional. For orientation: ITC needs no label: the signal is the heat of the interaction.
In assay [5] the test system is Candida albicans. In words: growth inhibition of resistant C. albicans, dose response, CaCi-8 strain, fluconazole, dry powder, set 4 (AID 488950). It counts as functional, organism-based.
In assay [6] the test system is Candida albicans. In words: fluconazole resistance reversal in C. albicans, dose response, CaCi-2 strain, Alamar Blue, dry powder, set 4 (AID 488943). It counts as functional, organism-based. A general note: The colour change of resazurin is a common sign of viable cells or microbes.
Assay [7] has as its system Candida albicans. In words: Candida albicans growth inhibition, agent alone, dose response, counter-screen for reversing antifungal drug resistance, CaCi-2 strain, no fluconazole, dry powder, set 4 (AID 488932). Type of assay: functional, organism-based.
The nature of assay [8]: inhibitors of firefly luciferase expression or activity, dose response, H4 neuroglioma cells, luminescence (AID 1990). It counts as functional, cell-based.
Assay [9] in a line: inhibitors of SNCA 5'UTR-driven reporter translation, confirmation, H4 neuroglioma cells, luminescence (AID 1988). Type of assay: functional, cell-based.
Assay [10] addresses Acyl-homoserine lactone acylase PvdQ (Pseudomonas aeruginosa (strain LESB58), UniProt Q9I194). In words: P. aeruginosa PvdQ acylase inhibitors, dose response, biochemical, fluorescence, plate reader and imaging, cherry-picks (AID 493231).
A further assay relates to HeLa. In words: HeLa cell cytotoxicity, dose response, cytotoxicity control, 48 h, plate reader, cherry-picks (AID 504942). The conditions noted are these: Homo sapiens. Type of assay: functional, cell-based.
The target of a further assay is Phospholipase D1 (Homo sapiens, UniProt Q13393). In words: PLD1 inhibitor potency in cells, dose response (AID 602151).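 Note: cellular PLD1 assay in Calu-1 cells stimulated with PMA.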 Type of assay: functional.
Phospholipase D1, sequence (Q13393 whole entry): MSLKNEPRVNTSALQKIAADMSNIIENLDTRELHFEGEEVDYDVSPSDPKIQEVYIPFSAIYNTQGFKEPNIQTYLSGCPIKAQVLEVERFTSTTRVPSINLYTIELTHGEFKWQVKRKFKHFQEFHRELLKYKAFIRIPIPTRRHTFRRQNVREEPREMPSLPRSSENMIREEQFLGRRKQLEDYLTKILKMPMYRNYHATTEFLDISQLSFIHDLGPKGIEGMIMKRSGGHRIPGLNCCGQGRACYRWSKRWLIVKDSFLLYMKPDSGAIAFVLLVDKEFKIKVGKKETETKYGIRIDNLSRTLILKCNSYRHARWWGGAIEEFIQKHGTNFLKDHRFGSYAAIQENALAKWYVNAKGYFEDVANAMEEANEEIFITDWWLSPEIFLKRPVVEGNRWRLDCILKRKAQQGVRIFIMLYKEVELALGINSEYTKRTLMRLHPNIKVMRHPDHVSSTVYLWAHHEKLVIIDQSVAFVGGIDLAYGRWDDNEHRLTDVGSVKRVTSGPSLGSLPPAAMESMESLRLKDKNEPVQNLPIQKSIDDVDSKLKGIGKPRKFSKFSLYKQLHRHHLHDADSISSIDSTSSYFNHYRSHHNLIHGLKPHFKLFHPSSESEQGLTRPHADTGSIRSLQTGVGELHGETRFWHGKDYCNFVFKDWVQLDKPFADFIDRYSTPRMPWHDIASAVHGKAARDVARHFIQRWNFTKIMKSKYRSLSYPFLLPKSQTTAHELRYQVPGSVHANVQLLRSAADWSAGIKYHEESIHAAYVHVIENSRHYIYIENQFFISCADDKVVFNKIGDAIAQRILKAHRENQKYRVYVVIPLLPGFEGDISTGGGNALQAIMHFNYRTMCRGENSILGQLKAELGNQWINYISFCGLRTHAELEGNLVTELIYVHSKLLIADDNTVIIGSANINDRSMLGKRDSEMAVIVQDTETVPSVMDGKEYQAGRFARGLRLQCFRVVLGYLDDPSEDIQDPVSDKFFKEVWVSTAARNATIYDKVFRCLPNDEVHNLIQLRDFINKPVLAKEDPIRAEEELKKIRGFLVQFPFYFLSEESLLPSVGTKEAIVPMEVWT
For the next assay, the target named is Phospholipase D2 (Homo sapiens, UniProt O14939). In words: PLD2 inhibitor potency in cells, dose response (AID 602147).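 Note: cellular assay in HEK293 cells overexpressing GFP-tagged PLD2.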 It counts as functional.
Phospholipase D2, sequence (O14939 whole entry): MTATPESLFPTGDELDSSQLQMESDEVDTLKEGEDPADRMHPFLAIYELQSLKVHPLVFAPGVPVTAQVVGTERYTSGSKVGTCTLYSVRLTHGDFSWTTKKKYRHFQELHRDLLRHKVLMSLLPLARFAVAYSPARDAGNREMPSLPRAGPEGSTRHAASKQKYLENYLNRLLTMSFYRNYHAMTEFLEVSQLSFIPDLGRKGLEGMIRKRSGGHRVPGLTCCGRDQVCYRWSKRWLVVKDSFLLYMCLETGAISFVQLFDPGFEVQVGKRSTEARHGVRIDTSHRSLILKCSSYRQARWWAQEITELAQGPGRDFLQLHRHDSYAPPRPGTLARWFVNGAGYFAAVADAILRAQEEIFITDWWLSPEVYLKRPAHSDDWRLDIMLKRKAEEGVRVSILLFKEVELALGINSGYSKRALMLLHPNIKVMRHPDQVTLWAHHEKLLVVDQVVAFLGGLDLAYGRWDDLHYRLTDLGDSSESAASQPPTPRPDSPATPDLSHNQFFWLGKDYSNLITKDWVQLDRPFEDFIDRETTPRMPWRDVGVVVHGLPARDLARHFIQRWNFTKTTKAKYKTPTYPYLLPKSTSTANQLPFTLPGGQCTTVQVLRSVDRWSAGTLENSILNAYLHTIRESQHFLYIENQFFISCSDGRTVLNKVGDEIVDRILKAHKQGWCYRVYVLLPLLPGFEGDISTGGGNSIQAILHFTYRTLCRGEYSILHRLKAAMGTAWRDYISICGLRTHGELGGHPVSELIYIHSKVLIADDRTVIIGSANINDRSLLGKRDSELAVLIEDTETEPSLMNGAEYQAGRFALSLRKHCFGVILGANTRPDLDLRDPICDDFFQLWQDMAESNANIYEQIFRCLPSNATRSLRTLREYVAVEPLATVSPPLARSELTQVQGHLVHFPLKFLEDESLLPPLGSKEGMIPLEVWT
The nature of assay [11]: insulin promoter down-regulators in MIN6 cells, imaging, high-content screening, mouse beta cells (AID 1628). Type of assay: functional.
A short description of assay [12]: cytotoxicity in MIN6 insulinoma cells, dose response, cytotoxicity control, cell-based, mouse insulinoma (AID 2122).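 Note: confirmatory high-throughput counterscreen run to flag cytotoxic compounds; mouse MIN-6 beta cells carrying an insulin promoter eGFP reporter.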 Type of assay: functional.
Assay [13] concerns the target Beta-2 adrenergic receptor (Homo sapiens, UniProt P07550). In words: beta2AR agonists driving receptor internalization, dose response, cell-based, FAP fluorogen, flow cytometry, cherry pick 1 (AID 588763). It counts as functional.
In assay [14] the target is T2, Short transient receptor potential channel 4 (Mus musculus, UniProt Q9QUQ5).
T2 sequence (Q9QUQ5 whole entry): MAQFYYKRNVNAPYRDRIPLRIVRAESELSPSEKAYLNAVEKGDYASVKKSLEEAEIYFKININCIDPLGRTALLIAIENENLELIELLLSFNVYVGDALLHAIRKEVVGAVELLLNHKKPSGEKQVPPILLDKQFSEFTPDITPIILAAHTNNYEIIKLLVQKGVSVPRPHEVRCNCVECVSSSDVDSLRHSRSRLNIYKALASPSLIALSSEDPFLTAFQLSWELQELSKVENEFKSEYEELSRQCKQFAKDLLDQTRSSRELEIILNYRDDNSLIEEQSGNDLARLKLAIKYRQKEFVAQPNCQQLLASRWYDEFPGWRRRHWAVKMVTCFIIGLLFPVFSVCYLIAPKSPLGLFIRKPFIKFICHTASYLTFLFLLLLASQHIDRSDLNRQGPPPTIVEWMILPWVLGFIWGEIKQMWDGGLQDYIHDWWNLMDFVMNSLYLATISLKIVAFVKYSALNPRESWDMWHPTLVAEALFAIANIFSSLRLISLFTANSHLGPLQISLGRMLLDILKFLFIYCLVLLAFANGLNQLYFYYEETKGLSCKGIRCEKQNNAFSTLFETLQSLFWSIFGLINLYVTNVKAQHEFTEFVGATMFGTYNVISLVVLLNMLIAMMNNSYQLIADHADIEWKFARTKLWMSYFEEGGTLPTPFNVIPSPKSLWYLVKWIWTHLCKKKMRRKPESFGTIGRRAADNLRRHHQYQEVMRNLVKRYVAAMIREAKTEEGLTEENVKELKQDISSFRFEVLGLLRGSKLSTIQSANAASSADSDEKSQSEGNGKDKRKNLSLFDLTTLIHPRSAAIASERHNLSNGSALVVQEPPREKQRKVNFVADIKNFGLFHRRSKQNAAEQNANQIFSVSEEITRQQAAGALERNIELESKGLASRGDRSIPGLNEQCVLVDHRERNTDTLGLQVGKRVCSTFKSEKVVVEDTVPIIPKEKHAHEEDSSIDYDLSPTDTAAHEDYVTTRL
In words: SAR Analysis for the identification of selective inhibits of the transient receptor potential cation channel C4 (TRPC4): Automated Electrophysiology. [Related pubchem assays (depositor defined):AID2256]. It counts as functional.

Assay [15] concerns the target Short transient receptor potential channel 6 (Mus musculus, UniProt Q61143). In words: TRPC6 inhibition potency of TRPC4 inhibitor analogs, dose response, selectivity assay for selective TRPC4 inhibitor project, HEK293 cells, membrane potential dye, IC50 (AID 492987). Type of assay: functional, cell-based.
For assay [16], the target named is T2, Short transient receptor potential channel 4. In words: TRPC4 inhibitor concentration-response, dose response, cell-based, HEK293 TRPC4/mu-opioid, DAMGO stimulus, Fluo-4 (AID 492994). It counts as functional.
The target in the next assay is DNA topoisomerase (Yersinia pestis, UniProt A0A2S9PM60). In words: Y. pestis Topo-I inhibitors, cleavage product readout, dose response, biochemical, cherry-pick (AID 588525).
DNA topoisomerase, sequence (A0A2S9PM60 whole entry): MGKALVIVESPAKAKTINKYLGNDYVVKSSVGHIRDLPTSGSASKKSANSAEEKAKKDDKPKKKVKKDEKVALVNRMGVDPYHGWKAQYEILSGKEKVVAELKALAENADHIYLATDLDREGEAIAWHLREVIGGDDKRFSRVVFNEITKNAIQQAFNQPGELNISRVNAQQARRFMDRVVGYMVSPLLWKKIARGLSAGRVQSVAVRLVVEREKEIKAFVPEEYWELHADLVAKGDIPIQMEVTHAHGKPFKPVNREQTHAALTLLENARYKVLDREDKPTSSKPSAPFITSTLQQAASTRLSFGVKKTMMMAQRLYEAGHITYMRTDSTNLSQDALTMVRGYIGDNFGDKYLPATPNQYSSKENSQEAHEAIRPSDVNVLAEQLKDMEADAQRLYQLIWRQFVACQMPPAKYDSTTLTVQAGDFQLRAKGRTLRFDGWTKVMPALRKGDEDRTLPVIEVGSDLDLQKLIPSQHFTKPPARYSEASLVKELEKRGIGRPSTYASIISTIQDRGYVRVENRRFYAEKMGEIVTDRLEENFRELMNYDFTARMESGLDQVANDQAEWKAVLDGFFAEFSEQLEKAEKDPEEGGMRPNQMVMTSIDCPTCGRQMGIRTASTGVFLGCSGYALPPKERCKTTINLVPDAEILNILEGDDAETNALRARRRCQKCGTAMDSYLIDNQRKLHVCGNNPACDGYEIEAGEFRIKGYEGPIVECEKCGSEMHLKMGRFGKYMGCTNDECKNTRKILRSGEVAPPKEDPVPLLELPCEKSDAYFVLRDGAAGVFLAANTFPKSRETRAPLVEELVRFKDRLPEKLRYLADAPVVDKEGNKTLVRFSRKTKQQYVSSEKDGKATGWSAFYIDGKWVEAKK
Assay [17] relates to INS1. In words: beta cell apoptosis inhibitors, cytokine rescue, dose response, luminescence, retest (AID 449756).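 Note: cell death triggered by IL-1 beta plus TNF-alpha plus IFN-gamma mixture; protective hits raise ATP signal compared with cytokine alone wells.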 It counts as functional, cell-based. The conditions noted are these: Rattus norvegicus.

Active and inactive are the calls of the source. Some results are limits rather than exact numbers.

T1 sequence (P0AE70 whole entry): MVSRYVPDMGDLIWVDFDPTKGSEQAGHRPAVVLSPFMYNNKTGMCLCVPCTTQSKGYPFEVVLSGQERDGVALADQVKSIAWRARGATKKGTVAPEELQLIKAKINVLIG
Bcl-2-like protein 10, sequence (Q9HD36 whole entry): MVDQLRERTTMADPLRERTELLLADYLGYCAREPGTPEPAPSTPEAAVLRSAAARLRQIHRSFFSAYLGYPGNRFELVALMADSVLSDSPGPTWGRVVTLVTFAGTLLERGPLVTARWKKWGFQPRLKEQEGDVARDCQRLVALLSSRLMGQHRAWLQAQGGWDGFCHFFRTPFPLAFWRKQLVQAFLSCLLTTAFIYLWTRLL
Acyl-homoserine lactone acylase PvdQ, sequence (Q9I194 24-193 limits assumed): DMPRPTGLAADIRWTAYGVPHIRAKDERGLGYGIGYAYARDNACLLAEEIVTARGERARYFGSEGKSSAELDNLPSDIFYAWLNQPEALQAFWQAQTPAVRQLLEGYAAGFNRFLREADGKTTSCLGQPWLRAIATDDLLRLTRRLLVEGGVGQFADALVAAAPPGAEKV
Acyl-homoserine lactone acylase PvdQ, sequence (Q9I194 217-762 limits assumed): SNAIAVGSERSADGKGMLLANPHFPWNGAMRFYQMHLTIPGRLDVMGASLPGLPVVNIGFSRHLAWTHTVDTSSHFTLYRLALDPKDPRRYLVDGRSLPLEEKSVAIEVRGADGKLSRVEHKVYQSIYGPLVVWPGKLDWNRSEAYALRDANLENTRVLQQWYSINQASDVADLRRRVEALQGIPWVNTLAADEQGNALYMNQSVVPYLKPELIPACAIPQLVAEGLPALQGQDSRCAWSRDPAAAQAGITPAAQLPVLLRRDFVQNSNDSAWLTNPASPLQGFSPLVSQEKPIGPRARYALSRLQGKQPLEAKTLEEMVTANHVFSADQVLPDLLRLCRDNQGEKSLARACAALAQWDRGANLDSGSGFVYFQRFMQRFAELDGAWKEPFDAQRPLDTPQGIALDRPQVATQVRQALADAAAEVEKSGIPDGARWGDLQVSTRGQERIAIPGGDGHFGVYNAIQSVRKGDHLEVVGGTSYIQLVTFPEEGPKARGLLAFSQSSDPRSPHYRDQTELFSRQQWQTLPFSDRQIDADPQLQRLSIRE
Beta-2 adrenergic receptor, sequence (P07550 whole entry): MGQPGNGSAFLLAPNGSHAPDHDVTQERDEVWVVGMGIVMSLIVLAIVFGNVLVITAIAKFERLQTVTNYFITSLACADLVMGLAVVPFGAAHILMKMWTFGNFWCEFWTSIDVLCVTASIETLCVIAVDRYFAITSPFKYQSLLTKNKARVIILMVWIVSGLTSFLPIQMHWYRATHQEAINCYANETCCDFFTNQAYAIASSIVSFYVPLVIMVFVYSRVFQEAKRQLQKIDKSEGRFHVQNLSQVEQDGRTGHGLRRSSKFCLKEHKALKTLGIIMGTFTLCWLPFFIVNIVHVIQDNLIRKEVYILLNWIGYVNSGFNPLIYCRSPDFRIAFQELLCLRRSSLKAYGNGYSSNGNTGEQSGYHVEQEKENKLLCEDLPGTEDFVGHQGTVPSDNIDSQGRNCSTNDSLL

The AC50 is the concentration at which the activity in the assay is half-maximal. For the compound `Cc1ccc(S(=O)(=O)N(C)C[C@@H]2Oc3c(NC(=O)Nc4ccccc4)cccc3C(=O)N([C@H](C)CO)C[C@H]2C)cc1`, the AC50 in the assay on INS1 [1] was 22.6 µM (active); with INS1 [2] it was 141 µM (active).

The EC50 is the concentration needed to bring the measured effect to its halfway point. As to `Cc1ccc(O)c(C2=Nc3ccccc3N=C(c3ccco3)C2)c1`, the EC50 was > 99 µM (inactive) in assay [3] and 75.1 µM (inactive) in assay [4].

Broadly, the IC50 is the concentration that inhibits the measured activity by half. In the case of `O=C1NC(=O)C2(Cc3c(nc4ccccn4c3=O)N3CCCCCC32)C(=O)N1Cc1ccccc1` (configuration not stated), at Bcl-2-like protein 10, the IC50 is 2.51 µM (active).

On to `O=C(c1ccc(Cl)cc1)N1CCN(c2cnccn2)CC1`, for which the AC50 in the assay on Candida albicans [5] was 10.7 µM (active); with Candida albicans [6], 12.7 µM (active); in the assay on Candida albicans [7], 234 µM (active).

Regarding `COc1ccc(C2=C(C=O)Cc3ccccc3O2)cc1`, the EC50 in assay [8] and in assay [9] was > 120 µM (not active) throughout. In addition, the AC50 in [10] was 4.37 µM (active); with HeLa, > 380 µM (inactive).

`O=C(NCCN1CCC2(CC1)C(=O)NCN2c1ccc(F)c(F)c1)c1ccc(Cl)cc1`: the IC50 was 2.36 µM (active) on Phospholipase D1 and 0.37 µM (active) on Phospholipase D2.

In the case of `CC1(C)Cc2c(c(-c3ccco3)nc3sc4c(NCCO)ncnc4c23)CO1`, the figures for the IC50 in [11] and in assay [12] were 0.909 µM (active) and > 16 µM (inactive), respectively. The EC50 in assay [13] is 0.0133 µM (active).

Consider `Cc1cc(N2CCCCC2)nc2ccc(F)cc12`, for which the values for the IC50 in assay [14], in assay [15] and in assay [16] were 6.18 µM (active), 20.1 µM (active) and 10.5 µM (active), respectively.

Turning to `CC(C)(C)OC(=O)NCc1ccc(NC(=O)c2[nH]cnc2C(=O)NCCNC(=O)c2nc[nH]c2C(=O)Nc2ccc(CNC(=O)OC(C)(C)C)cc2)cc1`, the AC50 at DNA topoisomerase was 2.49 µM (active); with INS1 [17] it was 6.59 µM (active).

These data come from ChEMBL document CHEMBL1201862, “PubChem BioAssay data set” (2004).
